Reference: ChEMBL document CHEMBL1124736, “Novel quinuclidine-based ligands for the muscarinic cholinergic receptor” (J Med Chem, 1990)

Tests used:
[1] = Log of the ratio of Kapp([3H]-NMS)/Kapp([3H]-OXO-M) was determined
[2] = target: T1, Muscarinic acetylcholine receptor (Rattus norvegicus) (UniProt P08482+P08483+P08485+P08911+P10980)
Description: In vitro for its ability to displace [3H]NMS from muscarinic acetylcholine receptor in rat cortical homogenates

[3] = target: T1, Muscarinic acetylcholine receptor (Rattus norvegicus); remark: listed apart in the source
Description: In vitro displacement of [3H]OXO-M from muscarinic acetylcholine receptor in rat cortical homogenates

[4] = target: T1, Muscarinic acetylcholine receptor (Rattus norvegicus); experiment: Compound was tested in vitro for its ability to displace [3H]OXO-M from Muscarinic acetylcholine receptor in rat cortical homogenates

Compound	Log ratio [1]	K app [2]	K app [3]	K app [4]
Cc1coc(C2CN3CCC2CC3)n1 (configuration not stated)	1.72	1.4 µM	0.027 µM	–
Cc1cnc(C2CN3CCC2CC3)o1 (configuration not stated)	–	0.73 µM	0.04 µM	–
Cc1coc(C2CN3CCC2CC3)c1 (configuration not stated)	1.18	1.4 µM	0.057 µM	–
Cc1cc(C2CN3CCC2CC3)on1 (configuration not stated)	1.59	1.4 µM	0.036 µM	–
CCc1noc(C2CN3CCC2CC3)n1 (configuration not stated)	–	0.096 µM	0.0056 µM	–
Cc1noc(C2CN3CCC2CC3)n1 (configuration not stated)	2.69	–	–	0.0009 µM
Cc1nnc(C2CN3CCC2CC3)o1 (configuration not stated)	2.11	7.5 µM	0.06 µM	–
COc1noc(C2CN3CCC2CC3)n1 (configuration not stated)	–	0.52 µM	0.014 µM	–
c1coc(C2CN3CCC2CC3)n1 (configuration not stated)	–	6.7 µM	0.038 µM	–
COC(=O)C1CN2CCC1CC2 (configuration not stated)	–	8.6 µM	0.023 µM	–
Nc1noc(C2CN3CCC2CC3)n1 (configuration not stated)	3.08	–	0.0005 µM	–
OC(c1ccccc1)(c1ccccc1)c1noc(C2CN3CCC2CC3)n1 (configuration not stated)	–	0.00012 µM	6.7e-05 µM	–
Clc1noc(C2CN3CCC2CC3)n1 (configuration not stated)	2.6	0.19 µM	0.00048 µM	–
CC(=O)Nc1noc(C2CN3CCC2CC3)n1 (configuration not stated)	–	23 µM	0.12 µM	–
CN(C)c1noc(C2CN3CCC2CC3)n1 (configuration not stated)	–	0.2 µM	0.021 µM	–
Cc1noc(C2=CN3CCC2CC3)n1	–	15 µM	0.4 µM	–
c1ccc(Cc2noc(C3CN4CCC3CC4)n2)cc1 (configuration not stated)	–	0.07 µM	0.021 µM	–
C[N+]12CCC(CC1)C(c1nc(N)no1)C2 (configuration not stated)	–	6.6 µM	0.079 µM	–
Brc1noc(C2CN3CCC2CC3)n1 (configuration not stated)	–	0.19 µM	0.0011 µM	–
Cc1ccc(C2CN3CCC2CC3)o1 (configuration not stated)	1.28	0.25 µM	0.013 µM	–
N#Cc1noc(C2CN3CCC2CC3)n1 (configuration not stated)	–	2.6 µM	0.043 µM	–
NC(=O)c1noc(C2CN3CCC2CC3)n1 (configuration not stated)	–	39 µM	1.7 µM	–
CNc1noc(C2CN3CCC2CC3)n1 (configuration not stated)	–	2 µM	0.053 µM	–
Cc1nc(C2CN3CCC2CC3)no1 (configuration not stated)	1.73	2.9 µM	0.054 µM	–
Cc1noc(C2=CCCN(C)C2)n1	–	1.8 µM	0.0046 µM	–
